28 compounds from ChEMBL document CHEMBL1126559, “Further studies of the structure-activity relationships of 1-[1-(2-benzo[b]thienyl)cyclohexyl]piperidine. Synthesis and evaluation of 1-(2-benzo[b]thienyl)-N,N-dialkylcyclohexylamines at dopamine uptake and phencyclidine binding sites” (J Med Chem, 1993) can be followed below.

In experiment [1] the target is T1, Sodium-dependent dopamine transporter (Rattus norvegicus, UniProt P23977). Nature of the experiment: Tested for inhibition of radioligand [3H]dopamine (DA) uptake in rat synaptosomes. The class given is subcellular, Brain.
T1 sequence (P23977 whole entry): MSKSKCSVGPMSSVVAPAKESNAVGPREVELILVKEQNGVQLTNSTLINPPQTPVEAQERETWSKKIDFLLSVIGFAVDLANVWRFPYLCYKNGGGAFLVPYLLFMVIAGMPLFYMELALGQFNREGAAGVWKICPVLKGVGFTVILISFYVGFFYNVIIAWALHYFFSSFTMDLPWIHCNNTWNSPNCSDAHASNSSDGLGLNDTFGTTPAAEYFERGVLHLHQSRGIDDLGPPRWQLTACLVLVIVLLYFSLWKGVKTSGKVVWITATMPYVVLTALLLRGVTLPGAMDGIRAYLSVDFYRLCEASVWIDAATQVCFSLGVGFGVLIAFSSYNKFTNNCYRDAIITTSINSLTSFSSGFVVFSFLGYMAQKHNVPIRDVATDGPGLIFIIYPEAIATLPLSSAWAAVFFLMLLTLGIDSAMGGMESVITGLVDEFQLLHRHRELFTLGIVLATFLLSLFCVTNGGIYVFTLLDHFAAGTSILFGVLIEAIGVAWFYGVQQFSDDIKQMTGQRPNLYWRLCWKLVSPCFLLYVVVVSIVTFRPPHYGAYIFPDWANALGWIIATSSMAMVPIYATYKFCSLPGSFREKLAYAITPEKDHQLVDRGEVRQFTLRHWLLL
For experiment [2], the target named is T1, Sodium-dependent dopamine transporter. The experiment in a line: Tested for radioligand [3H]BTCP displacement from dopamine transporter in rat forebrain.
The target is the same in experiment [3]. Nature of the experiment: Tested for radioligand [3H]cocaine displacement from dopamine transporter in rat forebrain.
Experiment [4] addresses Glutamate NMDA receptor. Nature of the experiment: Tested for affinity by radioligand [3H]-TCP displacement from phencyclidine binding site (PCP) in rat homogenates.

pIC50, pKi: −log10 of the molar value.

As to `CCCN(CC)C1(c2cc3ccccc3s2)CCCCC1`, the pIC50 (in general, −log10 of the IC50, conventionally taken in molar units) was 7.77 in experiment [1], 7.70 in experiment [2] and 6.68 in experiment [3]. Besides, the pKi (as a rule, the Ki on a negative log10 scale, so that one unit is a factor of ten) in experiment [4] is under 5.00.

As to `c1ccc(CNC2(c3cc4ccccc4s3)CCCCC2)cc1`, the pIC50 was 6.71 in experiment [1] and 6.84 in experiment [2]. This compound also had a negative logarithm of the Ki (pKi) in experiment [4] of under 5.00.

As for `CCCCN(C)C1(c2cc3ccccc3s2)CCCCC1`, the pIC50 in experiment [1] is 7.48; in experiment [2], 7.68; in experiment [3], 6.79. The pKi in experiment [4] was under 5.00.

As to `CNCCNC1(c2cc3ccccc3s2)CCCCC1`, the pIC50 in experiment [1] is 7.54; in experiment [2], 7.77; in experiment [3], 7.20. Moreover, the negative-log Ki (pKi) in experiment [4] is under 5.00.

For `c1ccc2sc(C3(N4CCCCC4)CCCCC3)cc2c1`, the results for the pIC50 in experiment [1] and in experiment [3] were 7.96 and 7.41, respectively. The pKi in experiment [4] is under 5.00.

Regarding `CCCCNC1(c2cc3ccccc3s2)CCCCC1`, the negative-log IC50 (pIC50) in experiment [1] was 8.15; in experiment [2] it was 9.52; in experiment [3], 7.22. The compound also had a negative-log Ki (pKi) in experiment [4] of under 5.00.

With `CNC1(c2cc3ccccc3s2)CCCCC1`, the pIC50 in experiment [1] was 7.24; in experiment [2], 7.00; in experiment [3], 6.57. The compound also had a pKi in experiment [4] of under 5.00.

Take `CNCCCNC1(c2cc3ccccc3s2)CCCCC1`: the negative-log IC50 (pIC50) in experiment [1] is 7.05; in experiment [2], 8.10; in experiment [3], 6.13. Further, the pKi in experiment [4] is under 5.00.

In the case of `O=C(Cc1ccc(Cl)c(Cl)c1)NCCNC1(c2cc3ccccc3s2)CCCCC1`, the results for the negative logarithm of the IC50 (pIC50) in experiment [1], in experiment [2] and in experiment [3] were 6.02, 6.24 and 5.83, respectively. In addition, the pKi in experiment [4] is under 5.00.

Take `c1ccc2sc(C3(NCC4CC4)CCCCC3)cc2c1`: the negative-log IC50 (pIC50) in experiment [1] is 8.40; in experiment [2], 9.00; in experiment [3], 7.64. The pKi in experiment [4] was under 5.00.

For `NCCCNC1(c2cc3ccccc3s2)CCCCC1`, the negative-log Ki (pKi) in experiment [4] was under 5.00.

As for `CNCCCCNC1(c2cc3ccccc3s2)CCCCC1`, the pIC50 in experiment [1] was 7.48; in experiment [2], 7.30; in experiment [3] it was 6.48. The negative logarithm of the Ki (pKi) in experiment [4] was under 5.00.

Consider `NCCNC1(c2cc3ccccc3s2)CCCCC1`, for which the negative logarithm of the IC50 (pIC50) in experiment [1] was 7.06; in experiment [2], 7.52; in experiment [3], 6.77. Further, the pKi in experiment [4] was under 5.00.

As for `Clc1ccc(CCNC2(c3cc4ccccc4s3)CCCCC2)cc1Cl`, the negative logarithm of the IC50 (pIC50) in experiment [1] was under 5.30; in experiment [2], 6.00; in experiment [3], under 5.30. This compound gave a pKi in experiment [4] of under 5.00.

In the case of `CC(C)=CCNC1(c2cc3ccccc3s2)CCCCC1`, the negative-log IC50 (pIC50) in experiment [1] is 7.85; in experiment [2], 8.10; in experiment [3], 7.30. Moreover, the pKi in experiment [4] was under 5.00.

`NCC(=O)NC1(c2cc3ccccc3s2)CCCCC1`: the pIC50 in experiment [1] was 6.86; in experiment [2], 6.94; in experiment [3], 6.08. In experiment [4], this compound showed a pKi of under 5.00.

`O=C1NCCN1C1(c2cc3ccccc3s2)CCCCC1`: the results for the negative logarithm of the IC50 (pIC50) in experiment [1], in experiment [2] and in experiment [3] were 5.67, 5.76 and under 5.30, respectively. This compound had a pKi in experiment [4] of under 5.00.

Consider `CCCCN(CCCC)C1(c2cc3ccccc3s2)CCCCC1`, for which the pIC50 in experiment [1] was 5.87; in experiment [2] it was 6.91; in experiment [3], 6.41. The pKi in experiment [4] was under 5.00.

Take `CCN(CC)C1(c2cc3ccccc3s2)CCCCC1`: the pIC50 in experiment [1] is 7.92; in experiment [2], 7.92; in experiment [3], 7.38. The same compound showed a pKi in experiment [4] of under 5.00.

As for `COC(=O)[C@H]1[C@@H](OC(=O)c2ccccc2)C[C@@H]2CC[C@H]1N2C` [COCAINE], the pKi in experiment [4] was under 5.00.

With `CCNC1(c2cc3ccccc3s2)CCCCC1`, the negative logarithm of the IC50 (pIC50) in experiment [1] is 7.66; in experiment [2], 7.66; in experiment [3], 6.78. The negative logarithm of the Ki (pKi) in experiment [4] is under 5.00.

`CCCN(CCC)C1(c2cc3ccccc3s2)CCCCC1`: the pIC50 is 7.09 in experiment [1], 7.43 in experiment [2] and 6.66 in experiment [3]. This compound showed a negative-log Ki (pKi) in experiment [4] of under 5.00.

Regarding `CN(C)C1(c2cc3ccccc3s2)CCCCC1`, the negative-log IC50 (pIC50) in experiment [1] is 7.29; in experiment [2], 7.57; in experiment [3] it was 7.08. For the same compound, in experiment [4], the pKi was under 5.00.

Regarding `C=CCNC1(c2cc3ccccc3s2)CCCCC1`, the negative-log IC50 (pIC50) in experiment [1] was 7.96; in experiment [2], 8.15; in experiment [3], 7.24. Further, the negative logarithm of the Ki (pKi) in experiment [4] is under 5.00.

Consider `CCCNC1(c2cc3ccccc3s2)CCCCC1`, for which the negative logarithm of the IC50 (pIC50) in experiment [1] was 8.30; in experiment [2], 8.40; in experiment [3] it was 7.24. Besides, the negative-log Ki (pKi) in experiment [4] is under 5.00.

On to `c1ccc2sc(C3(NCC4CCC4)CCCCC3)cc2c1`, for which the pIC50 in experiment [1] was 8.15; in experiment [2], 8.40; in experiment [3], 7.43. The compound also had a negative logarithm of the Ki (pKi) in experiment [4] of under 5.00.

As to `Clc1ccc(CCNCCNC2(c3cc4ccccc4s3)CCCCC2)cc1Cl`, the negative logarithm of the IC50 (pIC50) was 6.76 in experiment [1], 6.68 in experiment [2] and 6.15 in experiment [3]. This compound also gave a negative logarithm of the Ki (pKi) in experiment [4] of under 5.00.

For `CCCCCNC1(c2cc3ccccc3s2)CCCCC1`, the pIC50 is 7.47 in experiment [1], 7.62 in experiment [2] and 6.47 in experiment [3]. Also, the pKi in experiment [4] is under 5.00.
